# Measured values taken from patent publication US20050234046A1 (Kalypsys, Inc., priority 2004, published 2005).
# Experiments:
# Experiment in all cases: Transient transfection (transactivation) assay in CV-1 cells, GAL4-PPAR chimera, luciferase reporter
# Type in all cases: cell-based
# PPAR alpha = biological target: T1, PPAR alpha (Homo sapiens, UniProt Q07869)
# T1 construct: expressed in transfected cells; host or cells: CV-1 cells
# T1 sequence (Q07869 239-466 limits assumed): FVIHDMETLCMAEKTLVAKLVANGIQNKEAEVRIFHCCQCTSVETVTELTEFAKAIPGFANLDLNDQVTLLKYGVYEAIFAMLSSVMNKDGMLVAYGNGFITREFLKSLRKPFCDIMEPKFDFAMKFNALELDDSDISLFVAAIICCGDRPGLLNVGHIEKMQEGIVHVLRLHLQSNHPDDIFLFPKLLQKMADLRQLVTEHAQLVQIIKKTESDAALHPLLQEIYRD
# Method in brief: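 EC50 and efficacy come from a luciferase read-out after 20-24 hours of compound exposure (vehicle 1% DMSO) in transiently transfected CV-1 cells. These cells express a GAL4-PPAR ligand-binding-domain chimera plus a reporter with four or five GAL4 binding sites, and are kept in phenol-red free DME with 5% delipidated calf serum.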
# PPAR delta = biological target: T2, PPAR delta (Homo sapiens, UniProt Q03181)
# T2 construct: expressed in transfected cells; host or cells: CV-1 cells
# T2 sequence (Q03181 211-439 limits assumed): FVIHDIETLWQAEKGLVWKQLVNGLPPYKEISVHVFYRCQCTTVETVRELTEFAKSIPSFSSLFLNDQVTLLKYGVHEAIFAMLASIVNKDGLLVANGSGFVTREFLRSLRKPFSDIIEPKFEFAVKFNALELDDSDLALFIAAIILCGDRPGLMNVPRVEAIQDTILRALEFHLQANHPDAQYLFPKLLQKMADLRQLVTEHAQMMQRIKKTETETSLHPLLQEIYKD
# PPAR gamma = biological target: T3, PPAR gamma (Homo sapiens, UniProt P37231)
# T3 construct: expressed in transfected cells; host or cells: CV-1 cells
# T3 sequence (P37231 238-503 limits assumed): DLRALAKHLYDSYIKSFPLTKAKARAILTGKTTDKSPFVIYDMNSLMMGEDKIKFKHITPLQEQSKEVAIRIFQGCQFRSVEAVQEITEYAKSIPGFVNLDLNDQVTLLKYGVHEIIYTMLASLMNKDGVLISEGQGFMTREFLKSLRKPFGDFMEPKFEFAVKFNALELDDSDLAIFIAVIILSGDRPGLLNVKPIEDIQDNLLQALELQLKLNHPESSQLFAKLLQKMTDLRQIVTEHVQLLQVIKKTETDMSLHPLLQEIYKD
EC50 (PPAR alpha),EC50 (PPAR delta),EC50 (PPAR gamma),Structure (SMILES)
> 100 µM,< 5 µM,> 100 µM,"COc1ccc(S(=O)(=O)N2[C@H](C)CN(c3ccc(C(F)(F)F)cn3)C[C@@H]2C)cc1CC(=O)O [Example 78, {5-[2,6-Dimethyl-4-(5-trifluoromethyl-pyridin-2-yl)-piperazine-1-sulfonyl]-2-methoxy-phenyl}-acetic acid]"
> 100 µM,< 5 µM,5 to 100 µM,"COc1ccc(CC(=O)O)cc1S(=O)(=O)N1CCN(c2ccc(C(F)(F)F)cc2)CC1 [Example 79, {4-Methoxy-3-[4-(4-trifluoromethyl-phenyl)-piperazine-1-sulfonyl]-phenyl}-acetic acid]"
> 100 µM,< 5 µM,5 to 100 µM,COc1ccc(CC(=O)O)cc1S(=O)(=O)N1CCN(c2ccc(C(F)(F)F)cn2)CC1 [Example 80]
> 100 µM,5 to 100 µM,5 to 100 µM,"COc1ccc(CC(=O)O)cc1S(=O)(=O)N1CCN(c2ccc(C(F)(F)F)cn2)CC1C (stereo not drawn) [Example 81, {4-Methoxy-3-[2-methyl-4-(5-trifluoromethyl-pyridin-2-yl)-piperazine-1-sulfonyl]-phenyl}-acetic acid]"
> 100 µM,5 to 100 µM,> 100 µM,"COc1ccc(CC(=O)O)cc1S(=O)(=O)N1[C@H](C)CN(c2ccc(C(F)(F)F)cn2)C[C@@H]1C [Example 82, {3-[2,6-Dimethyl-4-(5-trifluoromethyl-pyridin-2-yl)-piperazine-1-sulfonyl]-4-methoxy-phenyl}-acetic acid]"
> 100 µM,< 5 µM,> 100 µM,"Cc1ccc(S(=O)(=O)N2[C@H](C)CN(c3ccc(Cl)c(Cl)c3)C[C@@H]2C)cc1CC(=O)O [Example 83, {5-[4-(3,4-Dichloro-phenyl)-2,6-dimethyl-piperazine-1-sulfonyl]-2-methyl-phenyl}-acetic acid]"
> 100 µM,> 100 µM,> 100 µM,"CN(C)Cc1cc(CC(=O)O)cc(S(=O)(=O)N2CCN(c3ccc(C(F)(F)F)cc3)CC2)c1 [Example 84, {3-Dimethylaminomethyl-5-[4-(4-trifluorometbyl-phenyl)-piperazine-1-sulfonyl]-phenyl}-acetic acid]"
> 100 µM,5 to 100 µM,> 100 µM,"COCc1cc(CC(=O)O)cc(S(=O)(=O)N2CCN(c3ccc(C(F)(F)F)cc3)CC2)c1 [Example 85, {3-Methoxymethyl-5-[4-(4-trifluoromethyl-phenyl)-piperazine-1-sulfonyl]-phenyl}-acetic acid]"
> 100 µM,> 100 µM,> 100 µM,Cc1ccc(S(=O)(=O)N2CCN(c3cnc(Cl)cn3)CC2)cc1CC(=O)O [Example 86]
< 5 µM,< 5 µM,5 to 100 µM,"Cc1ccc(S(=O)(=O)N2CCN(c3ccc(OC(F)(F)F)cc3)CC2)cc1CC(=O)O [Example 87, {2-Methyl-5-[4-(4-trifluoromethoxy-phenyl)-piperazine-1-sulfonyl]-phenyl}-acetic acid]"
> 100 µM,> 100 µM,> 100 µM,"CCNCc1cc(CC(=O)O)cc(S(=O)(=O)N2CCN(c3ccc(C(F)(F)F)cc3)CC2)c1 [Example 88, {3-Ethylaminomethyl-5-[4-(4-trifluoromethyl-phenyl)-piperazine-1-sulfonyl]-phenyl}-acetic acid]"
> 100 µM,> 100 µM,> 100 µM,"COCCNCc1cc(CC(=O)O)cc(S(=O)(=O)N2CCN(c3ccc(C(F)(F)F)cc3)CC2)c1 [Example 89, {3-[(2-Methoxy-ethylamino)-methyl]-5-[4-(4-trifluoromethyl-phenyl)-piperazine-1-sulfonyl]-phenyl}-acetic acid]"
< 5 µM,< 5 µM,5 to 100 µM,"Cc1ccc(S(=O)(=O)N2CCN(c3ccc(C(F)(F)F)c(F)c3)[C@@H](C)C2)cc1CC(=O)O [Example 90, {5-[4-(3-Fluoro-4-trifluoromethyl-phenyl)-3-(S)-methyl-piperazine-1-sulfonyl]-2-methyl-phenyl}-acetic acid]"
> 100 µM,> 100 µM,> 100 µM,"O=C(O)Cc1cc(COCCO)cc(S(=O)(=O)N2CCN(c3ccc(C(F)(F)F)cc3)CC2)c1 [Example 91, {3-(2-Hydroxy-ethoxymethyl)-5-[4-(4-trifluoromethyl-phenyl)-piperazine-1-sulfonyl]-phenyl}-acetic acid]"
< 5 µM,< 5 µM,> 100 µM,"O=C(O)Cc1cccc(S(=O)(=O)N2CCN(c3ccc(OC(F)(F)F)cc3)CC2)c1 [Example 92, {3-[4-(4-Trifluoromethoxy-phenyl)-piperazine-1-sulfonyl]-phenyl}-acetic acid]"
< 5 µM,< 5 µM,5 to 100 µM,"Cc1ccc(S(=O)(=O)N2CCN(c3ccc(C(F)(F)F)c(Cl)c3)CC2)cc1CC(=O)O [Example 93, {5-[4-(3-Chloro-4-trifluorometbyl-phenyl)-piperazine-1-sulfonyl]-2-methyl-phenyl}-acetic acid]"
5 to 100 µM,< 5 µM,< 5 µM,"CCC1CN(S(=O)(=O)c2ccc(C)c(CC(=O)O)c2)CCN1c1ccc(C(F)(F)F)cn1 (stereo not drawn) [Example 94, {5-[3-Ethyl-4-(5-trifluoromethyl-pyridin-2-yl)-piperazine-1-sulfonyl]-2-methyl-phenyl}-acetic acid]"
> 100 µM,< 5 µM,> 100 µM,"Cc1ccc(S(=O)(=O)N2CCN(c3ccc(C(F)(F)F)nc3)CC2)cc1CC(=O)O [Example 95, {2-Methyl-5-[4-(6-trifluoromethyl-pyridin-3-yl)-piperazine-1-sulfonyl]-phenyl}-acetic acid]"
< 5 µM,< 5 µM,> 100 µM,O=C(O)Cc1cccc(S(=O)(=O)N2CCN(c3ccc(C(F)(F)F)cc3Br)CC2)c1 [Example 96]
< 5 µM,< 5 µM,> 100 µM,"Cc1ccc(S(=O)(=O)N2CCN(c3ccc(C(F)(F)F)cc3Br)CC2)cc1CC(=O)O [Example 97, {5-[4-(2-Bromo-4-trifluoromethyl-phenyl)-piperazine-1-sulfonyl]-2-methyl-phenyl-}acetic acid]"
< 5 µM,< 5 µM,> 100 µM,"CCC1CN(c2ccc(C(F)(F)F)c(Cl)c2)CCN1S(=O)(=O)c1ccc(C)c(CC(=O)O)c1 (stereo not drawn) [Example 98, {5-[2-Ethyl-4-(3-chloro-4-trifluoromethyl-phenyl)-piperazine-1-sulfonyl]-2-methyl-phenyl}-acetic acid]"
< 5 µM,< 5 µM,5 to 100 µM,Cc1ccc(S(=O)(=O)N2CCN(c3ccc(OC(F)(F)F)cc3)[C@@H](C)C2)cc1CC(=O)O [Example 99]
5 to 100 µM,< 5 µM,5 to 100 µM,"Cc1ccc(S(=O)(=O)N2[C@H](C)CN(c3ccc(OC(F)(F)F)cc3)C[C@@H]2C)cc1CC(=O)O [Example 100, {5-[2,6-Dimethyl-4-(4-trifluoromethoxy-phenyl)-piperazine-1-sulfonyl]-2-methyl-phenyl}-acetic acid]"
5 to 100 µM,< 5 µM,5 to 100 µM,"Cc1ccc(S(=O)(=O)N2CCN(c3ccc(Cl)c(Cl)c3)C[C@@H]2C)cc1CC(=O)O [Example 101, {5-[4-(3,4-Dichloro-phenyl)-2-(S)-methyl-piperazine-1-sulfonyl]-2-methyl-phenyl}-acetic acid]"
